# Measurements as given in ChEMBL document CHEMBL2010790, “Growth inhibition and mechanism of action of p-dodecylaminophenol against refractory human pancreatic cancer and cholangiocarcinoma” (Bioorg Med Chem, 2012).
# Activity calls are given as the source filed them. The rule behind the calls is not given here.
# Key:
# [1] = Cellular uptake in human HuCCT1 cells at 10 uM measured after 30 mins up to 60 mins; format: ADME, cell-based; details: hucct-1, 10 µM
# MIA PaCa-2 [2] = assay: Downregulation of K-ras in human MIAPaCa2 cells at 10 uM after 72 hrs by agarose gel electrophoresis; format: functional, cell-based
# MIA PaCa-2 [3] = assay: Growth inhibition of human MIAPaCa2 cells at 1 uM after 72 hrs by MTT assay; format: functional; details: MIA PaCa-2, 72 h, read-out: GI
# [4] = Downregulation of K-ras in human HuCCT1 cells at 2 uM after 72 hrs by agarose gel electrophoresis; format: functional, cell-based; details: HuCCT-1
# [5] = Growth inhibition of human HuCCT1 cells at 1 uM after 72 hrs by MTT assay relative to control; format: functional; details: HuCCT-1, 72 h, read-out: GI
# MIA PaCa-2 [6] = assay: Downregulation of K-ras in human MIAPaCa2 cells at 7 uM after 72 hrs by agarose gel electrophoresis; format: functional, cell-based
# HuCCT1 [7] = assay: Inhibition of ERK phosphorylation in human HuCCT1 cells assessed as reduction in phospho-ERK levels at 2 uM after 48 hrs by immunoblotting; format: cell-based
# [8] = Downregulation of N-ras in human HuCCT1 cells at 2 uM after 72 hrs by agarose gel electrophoresis; format: functional, cell-based; details: HuCCT-1
# [9] = Downregulation of K-ras in human HuCCT1 cells at 6 uM after 72 hrs by agarose gel electrophoresis; format: functional, cell-based; details: HuCCT-1
# MIA PaCa-2 [10] = assay: Growth inhibition of human MIAPaCa2 cells at 10 uM after 72 hrs by MTT assay relative to control; format: functional; details: for inhibition of growth at 10 µM: MIA PaCa-2, 72 h, read-out: GI
# HuCCT-1 [11] = assay: Induction of apoptosis in human HuCCT1 cells after 72 hrs; format: functional, cell-based
# MIA PaCa-2 [12] = assay: Cellular uptake in human MIAPaCa2 cells at 10 uM up to 30 mins by HPLC analysis; format: ADME, cell-based; details: mia paca-2, 0.5 h
# [13] = Downregulation of H-ras in human HuCCT1 cells at 2 uM after 72 hrs by agarose gel electrophoresis; format: functional, cell-based; details: HuCCT-1
# MIA PaCa-2 [14] = assay: Growth inhibition of human MIAPaCa2 cells at 4 uM after 72 hrs by MTT assay relative to control; format: functional; details: MIA PaCa-2, 72 h, read-out: GI
# HuCCT1 [15] = assay: Inhibition of Akt phosphorylation in human HuCCT1 cells assessed as reduction in phospho-Akt levels at 2 uM after 48 hrs by immunoblotting; format: cell-based
# [16] = Cellular uptake in human HuCCT1 cells at 10 uM up to 30 mins by HPLC analysis; format: ADME, cell-based; details: hucct-1, 0.5 h
# Nucleic Acid = assay: Ratio of drug level in human MIAPaCa2 cells to human HuCCT1 cells at 30 mins; format: ADME, cell-based; details: mia paca-2, 0.5 h
# MIA PaCa-2 [17] = assay: Cytotoxicity against human MIAPaCa2 cells after 72 hrs by MTT assay; format: functional, cell-based; details: MIA PaCa-2, 72 h
# MIA PaCa-2 [18] = assay: Inhibition of ERK phosphorylation in human MIAPaCa2 cells assessed as reduction in phospho-ERK levels at 10 uM after 48 hrs by immunoblotting; format: cell-based
# [19] = Growth inhibition of human HuCCT1 cells at 4 uM after 72 hrs by MTT assay relative to control; format: functional; details: HuCCT-1, 72 h, read-out: GI
# MIA PaCa-2 [20] = assay: Induction of apoptosis in human MIAPaCa2 cells after 72 hrs; format: functional, cell-based
# MIA PaCa-2 [21] = assay: Inhibition of Akt phosphorylation in human MIAPaCa2 cells assessed as effect on […] at 10 uM after 48 hrs by immunoblotting; format: cell-based
# [22] = (§1) Growth inhibition of human HuCCT1 cells at 10 uM after 72 hrs by MTT assay relative to control; format: functional; details: HuCCT-1, 72 h, read-out: GI
# [23] = (§2) Cytotoxicity against human HuCCT1 cells after 72 hrs by MTT assay; format: functional, cell-based; details: HuCCT-1, 72 h
# HuCCT-1 [24] = assay: as §2; format: functional, cell-based
# HuCCT1 [25] = assay: Inhibition of ERK phosphorylation in human HuCCT1 cells assessed as reduction in phospho-ERK levels at 6 uM after 48 hrs by immunoblotting; format: cell-based
# MIA PaCa-2 [26] = assay: Inhibition of ERK phosphorylation in human MIAPaCa2 cells assessed as reduction in phospho-ERK levels at 7 uM after 48 hrs by immunoblotting; format: cell-based
# HuCCT1 [27] = assay: Inhibition of Akt phosphorylation in human HuCCT1 cells assessed as reduction in phospho-Akt levels at 6 uM after 48 hrs by immunoblotting; format: cell-based
# MIA PaCa-2 [28] = assay: Inhibition of Akt phosphorylation in human MIAPaCa2 cells assessed as effect on […] at 7 uM after 48 hrs by immunoblotting; format: cell-based
# [29] = Downregulation of H-ras in human HuCCT1 cells at 6 uM after 72 hrs by agarose gel electrophoresis; format: functional, cell-based; details: HuCCT-1
# HuCCT-1 [30] = assay: as §1; format: functional
SMILES,Activity (MIA PaCa-2 [2]),Activity [4],Activity (MIA PaCa-2 [6]),Activity [9],inhibition of growth at 10 µM (MIA PaCa-2 [10]) [%],Activity (HuCCT-1 [11]),inhibition of growth at 4 µM (MIA PaCa-2 [14]) [%],IC50 (MIA PaCa-2 [17]) [µM],inhibition of growth at 4 µM [19] [%],Activity (MIA PaCa-2 [20]),inhibition of growth at 10 µM [22] [%],IC50 [23] [µM],growth inhibition (GI) (HuCCT-1 [24]),further results
CCCCCCCCCCCCNc1ccc(O)cc1,Active,Active,Active,Active,50,inactive,45,10,82,inactive,84,2,Dose-dependent effect,Drug uptake [1]: Not Active; inhibition of growth at 1 µM (MIA PaCa-2 [3]): 20%; inhibition of growth at 1 µM [5]: 35%; inhibition (HuCCT1 [7]): 21%; Activity [8]: Active; Drug uptake (MIA PaCa-2 [12]): Active; Activity [13]: Active; inhibition (HuCCT1 [15]): 20%; Drug uptake [16]: Active; Ratio (Nucleic Acid): 1.8; inhibition (MIA PaCa-2 [18]): 50%; inhibition (MIA PaCa-2 [21]): inactive
CCCCCCCCCCNc1ccc(O)cc1,–,–,–,–,55,–,–,–,82,–,–,–,Dose-dependent effect,–
CCCCCCCCCC(=O)Nc1ccc(O)cc1,–,–,–,–,0,–,–,–,23,–,–,–,Dose-dependent effect,–
CC1=C(/C=C/C(C)=C/C=C/C(C)=C/C(=O)O)C(C)(C)CCC1 [TRETINOIN],–,–,–,–,18,–,15,–,17,–,28,–,–,–
CCCCCCCCCCCC(=O)Nc1ccc(O)cc1,–,–,–,–,0,–,–,–,23,–,–,–,Dose-dependent effect,–
CC1=C(/C=C/C(C)=C/C=C/C(C)=C/C(=O)Nc2ccc(O)cc2)C(C)(C)CCC1 [FENRETINIDE],Active,Active,Active,Active,–,inactive,8,7,17,inactive,–,6,Dose-dependent effect,inhibition (HuCCT1 [25]): inactive; inhibition (MIA PaCa-2 [26]): inactive; inhibition (HuCCT1 [27]): inactive; growth inhibition (GI) (MIA PaCa-2 [10]): Active; inhibition (MIA PaCa-2 [28]): 30%; Activity [29]: Active; growth inhibition (GI) (HuCCT-1 [30]): Active
